Experimental data published in ChEMBL document CHEMBL1150467, “The identification of a novel renin inhibitor of equivalent efficacy following oral or intravenous administration” (Bioorg Med Chem Lett, 1994).

Target: T1, Renin (Homo sapiens, UniProt P00797)
T1 sequence (P00797 whole entry): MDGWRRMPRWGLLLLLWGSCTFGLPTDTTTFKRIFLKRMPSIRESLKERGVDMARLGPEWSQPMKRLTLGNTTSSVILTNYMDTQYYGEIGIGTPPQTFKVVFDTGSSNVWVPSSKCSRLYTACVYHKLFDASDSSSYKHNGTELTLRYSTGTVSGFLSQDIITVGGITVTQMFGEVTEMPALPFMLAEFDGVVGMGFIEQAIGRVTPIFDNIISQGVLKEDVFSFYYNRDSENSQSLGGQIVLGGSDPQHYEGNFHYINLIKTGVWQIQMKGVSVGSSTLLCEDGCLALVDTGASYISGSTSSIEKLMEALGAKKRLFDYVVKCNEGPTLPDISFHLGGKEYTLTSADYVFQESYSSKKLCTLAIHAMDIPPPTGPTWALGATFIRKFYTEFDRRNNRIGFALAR
Assay: […]
Format: cell-free, Plasma

With CC(C)C[C@H](NC(=O)[C@H](Cc1ccccc1)NC(=O)CCN1C(=O)COc2ccncc21)C(=O)N[C@@H](CC1CCCCC1)[C@@H](O)CC(=O)NCCCn1ccnc1 the IC50 was 20 nM.

For CC(C)C[C@H](NC(=O)[C@H](Cc1ccccc1)NC(=O)CC1CS(=O)(=O)c2ccccc21)C(=O)N[C@@H](CC1CCCCC1)[C@@H](O)CC(=O)NCCCn1ccnc1 (some centres not stated), the IC50 was 12 nM.

Molecule CC(C)C[C@H](NC(=O)[C@H](Cc1ccccc1)NC(=O)CC1CS(=O)(=O)c2ccccc21)C(=O)N[C@@H](CC1CCCCC1)[C@@H](O)CC(=O)NCCCc1cccnc1 (some centres not stated) has an IC50 of 34 nM.

In the case of CC(C)C[C@H](NC(=O)[C@H](Cc1ccccc1)NC(=O)CC1CS(=O)(=O)c2ccccc21)C(=O)N[C@@H](CC1CCCCC1)[C@@H](O)CC(=O)NCCCN(C)C (some centres not stated), the IC50 is reported as 95 nM.

For CC(C)C[C@H](NC(=O)[C@H](Cc1ccccc1)NC(=O)CC1CS(=O)(=O)c2ccccc21)C(=O)N[C@@H](CC1CCCCC1)[C@@H](O)CC(=O)NCCCC(=O)O (some centres not stated), the IC50 was 55 nM.

Molecule CC(C)C[C@H](NC(=O)[C@H](Cc1ccccc1)NC(=O)CCCN1C(=O)CSc2ccncc21)C(=O)N[C@@H](CC1CCCCC1)[C@@H](O)CC(=O)NCCCn1ccnc1 has an IC50 of 14 nM.

For CC(C)CCNC(=O)C[C@H](O)[C@H](CC1CCCCC1)NC(=O)[C@H](CC(C)C)NC(=O)[C@H](Cc1ccccc1)NC(=O)CC1CS(=O)(=O)c2ccccc21 (some centres not stated), the IC50 was 10 nM.

In the case of CC(C)C[C@H](NC(=O)[C@H](Cc1ccccc1)NC(=O)CC1CS(=O)(=O)c2ccccc21)C(=O)N[C@@H](CC1CCCCC1)[C@@H](O)CC(=O)NCCN1CCOCC1 (some centres not stated), the IC50 is reported as 170 nM.

CC(C)C[C@H](NC(=O)[C@H](Cc1ccccc1)NC(=O)CCN1C(=O)CS(=O)(=O)c2ccncc21)C(=O)N[C@@H](CC1CCCCC1)[C@@H](O)CC(=O)NCCCn1ccnc1 showed an IC50 of 8 nM.

CC(C)C[C@H](NC(=O)[C@H](Cc1ccccc1)NC(=O)CC1CS(=O)(=O)c2ccccc21)C(=O)N[C@@H](CC1CCCCC1)[C@@H](O)CC(=O)NCCn1ccnc1 (some centres not stated) showed an IC50 of 41 nM.

Work on CC(C)C[C@H](NC(=O)[C@H](Cc1ccccc1)NC(=O)CN1C(=O)CSc2ccncc21)C(=O)N[C@@H](CC1CCCCC1)[C@@H](O)CC(=O)NCCCn1ccnc1 yielded an IC50 of 38 nM.

With CC(C)C[C@H](NC(=O)[C@H](Cc1ccccc1)NC(=O)CCN1C(=O)CSc2cnccc21)C(=O)N[C@@H](CC1CCCCC1)[C@@H](O)CC(=O)NCCCn1ccnc1 the IC50 was 4 nM.
